The numbers were not newly measured in patent US11931369B1, “Compositions and methods for treating epilepsy” (POVIVA CORP, priority 2023, dated 2024), which cites them from elsewhere.

Molecules are shown by their SMILES. Where two headings read alike, the source gives them in different places.

Consider `C=C(C)[C@@H]1CCC(C)=C[C@H]1c1c(O)cc(CCCCC)cc1O` [Cannabidiol, 2-[(1R,6R)-6-Isopropenyl-3-methylcyclohex-2-en-1-yl]-5-pentylbenzene-1,3-diol], for which, where the note is “5 mg/kg/day (N = 10)”, the “Plasma concentration on Day 22 at target CBD dose, 5 hours, Mean” value is 72.1 ng/mL; the “Plasma concentration on Day 22 at target CBD dose, Pre-dose, Mean” value was 23.0 ng/mL; the “Plasma concentration on Day 22 at target CBD dose, […], Mean” value is recorded as 130 ng/mL. Further, under “5 mg/kg/day group (N = 10)”, the “Plasma concentration on Day 1 at starting CBD dose, 5 hours, Mean” value is 10.0 ng/mL; the “Plasma concentration on Day 1 at starting CBD dose, Pre-dose, Mean” value was 0 ng/mL; the “Plasma concentration on Day 1 at starting CBD dose, […], Mean” value is listed as 37.6 ng/mL. Further, under “10 mg/kg/day (N = 8)”, the “Plasma concentration on Day 22 at target CBD dose, 5 hours, Mean” value was 288 ng/mL; the “Plasma concentration on Day 22 at target CBD dose, Pre-dose, Mean” value is given as 62.1 ng/mL; the “Plasma concentration on Day 22 at target CBD dose, […], Mean” value is 242 ng/mL. Besides, for the setting “10 mg/kg/day group (N = 8)”, the “Plasma concentration on Day 1 at starting CBD dose, 5 hours, Mean” value was 11.3 ng/mL; the “Plasma concentration on Day 1 at starting CBD dose, Pre-dose, Mean” value is recorded as 0 ng/mL; the “Plasma concentration on Day 1 at starting CBD dose, […], Mean” value is 34.4 ng/mL. Moreover, for the setting “20 mg/kg/day (N = 9)”, the “Plasma concentration on Day 22 at target CBD dose, 5 hours, Mean” value is listed as 308 ng/mL; the “Plasma concentration on Day 22 at target CBD dose, Pre-dose, Mean” value is given as 121 ng/mL; the “Plasma concentration on Day 22 at target CBD dose, […], Mean” value is given as 380 ng/mL. In addition, where the note is “20 mg/kg/day group (N = 9)”, the “Plasma concentration on Day 1 at starting CBD dose, 5 hours, Mean” value is listed as 25.3 ng/mL; the “Plasma concentration on Day 1 at starting CBD dose, Pre-dose, Mean” value was 0 ng/mL; the “Plasma concentration on Day 1 at starting CBD dose, […], Mean” value is reported as 29.3 ng/mL.
